According to US20060265769A1, “Gab2 (p97) gene and methods of use thereof” (Beth Israel Deaconess Medical Center, Inc., priority 2000, published 2006):

What was measured:
BaF3 cells = experiment: IL-3-induced c-fos promoter luciferase reporter assay; format: cell-based; details: IL-3 stimulation
Description: Therefore, the role of Gab2 in IL-3-induced c-fos promoter activity was assessed. For c-fos reporter assays, 1.5 μg of c-fos promoter (nt −710 to +42)-luciferase reporter were used (Hu et al., Science 268, 100-102 (1995)). STAT-driven transctivation was measured using 1.5 μg of a GAS-luciferase reporter (Jaster et al., Mol. Cell. Biol. 3364-3372 (1997)). For Elk assays, Gal4-Elk-1 (2 μg) and Gal4-luciferase (1 μg) were used (Bennett et al., Mol. Cell. Biol. 16, 1189-1202 (1996)). Cells were electroporated at 300V/800 μF, transferred to fresh RPMI/10% WEHI supernatant/10% FCS and, after three hours, were starved in RPMI/10% FCS. Twelve hours post-transfection, transfected cells (approximately 10^6/condition) were incubated in RPMI/10% FCS alone or with murine IL-3 (1 ng/ml) for two hours. Luciferase assays were performed with a kit (Promega, Madison, Wis.). Promoter activities were normalized to Renilla luciferase levels.

MCF10A cells [1] = experiment: Proliferation of MCF10A cells in three-dimensional culture (Ki67 staining); format: cell-based, human; details: Gab2-overexpressing MCF10A, days 6 and 15 of culture; UO 15 μM on days 13 and 14 (FIG. 15F)
MCF10A cells [2] = details: treated on days 1 and 2, acini at 9 days (FIG. 15G)

| Compound | IL-3-induced c-fos luciferase activity (BaF3 cells) | effects of Gab2 overexpression on the proliferation of MCF10A (MCF10A cells [1]) | cooperation of Gab2 with Neu (MCF10A cells [2]) |
| --- | --- | --- | --- |
| COc1cccc(-c2cc(=O)c3ccccc3o2)c1N [PD98059] | ablated |  |  |
| N#CC(=C(/N)Sc1ccccc1N)/C(C#N)=C(/N)Sc1ccccc1N [UO126] |  | abolished | blocked |
